Results as given in US6747041B1, “Heterocyclic dicarboxylic acid diamide derivatives, agricultural/horticultural insecticides and method of using the same” (Nihon Nohyaku Co., Ltd., priority 1999, dated 2004).

| Structure (SMILES) | melting point [°C] |
| --- | --- |
| Cc1cc(C(F)(C(F)(F)F)C(F)(F)F)ccc1NC(=O)c1nn(-c2ccccc2)c(Br)c1C(=O)NC(C)C | 164 to 166 |
| Cc1cc(C(F)(C(F)(F)F)C(F)(F)F)ccc1NC(=O)c1ccc[n+]([O-])c1C(=O)NC(C)C | 108 to 110 |
